From article PMC7048748, “Anxiolytic Drug FGIN-1-27 Ameliorates Autoimmunity by Metabolic Reprogramming of Pathogenic Th17 Cells” (Scientific Reports, 2020)

Tested on: STAT3
Assay: Phospho Stat3 staining after IL-6 re-stimulation
Type: cell-based, mouse
Settings: re-stimulation with IL-6
Protocol: The following day, cells were treated with either DMSO or of FGIN-1-27 (10 μM). For phospho-ZAP70 analyses, cells were stained after 24 hours of treatment using 10 μg/ml of biotinylated anti-CD3 (145-2C11, BD Biosciences) and anti-CD28 (37.51, BD Biosciences) antibodies on ice for 15 minutes, washed, and stimulated in presence of 20 μg/ml of Streptavidin for 10 minutes at 37 degrees. Cells were then fixed in 2% PFA, permeabilized in Methanol/Acetone and stained with anti-phospho ZAP70 antibody (n3kobu5, eBioscience) and anti-CD4 (RM4-5, eBioscience). For phospho-STAT3 analyses, cells were cultured for additional 24 hours in IL-6 free media, before stimulation with 100 ng/ml of mIL-6 for 30 minutes. Cells were then fixed in 2% PFA, permeabilized in Methanol/Acetone and stained with anti-phospho-STAT3 antibody (4/P-STAT3, BD Biosciences) and anti-CD4. Dead cells were excluded using Live/Dead […] (Thermo Fisher) staining prior to stimulation. page 3: Supplementary Figur es Fig S1 (a) Genomic browser screenshot of Tspo depicting normalized RNA-seq read coverage (RPM) in different T cell subsets. Data were downloaded from NCBI GEO (accession number GSE40918) and processed as in Figure 4A. […] (g) Transcript levels for S ta t3 after 24 hours of treatment with DMSO or FGIN-1-27 quantified by qPCR. […]

Structure (SMILES): CCCCCCN(CCCCCC)C(=O)Cc1c(-c2ccc(F)cc2)[nH]c2ccccc12 [FGIN-1-27, N, N-di-n-hexyl 2-(4-fluorophenyl) indole-3-acetamide]
- phosphorylation of STAT3: did not show a defect
